Test results as given in BindingDB's records for doi:10.1016/j.bmcl.2017.04.089 (Mcdaniel College, 2017).

Target: Protein mono-ADP-ribosyltransferase PARP14 (Homo sapiens, UniProt Q460N5)
Test: Inhibition of recombinant human His6-tagged PARP14 catalytic/WWE domain (1459 to 1801 residues) expressed in Escherichia coli BL21(DE3) preincubated for 15 mins followed by biotinylated NAD+ addition by chemiluminescence assay

Chain of Protein mono-ADP-ribosyltransferase PARP14 (Q460N5 whole entry, the tested form may be a part): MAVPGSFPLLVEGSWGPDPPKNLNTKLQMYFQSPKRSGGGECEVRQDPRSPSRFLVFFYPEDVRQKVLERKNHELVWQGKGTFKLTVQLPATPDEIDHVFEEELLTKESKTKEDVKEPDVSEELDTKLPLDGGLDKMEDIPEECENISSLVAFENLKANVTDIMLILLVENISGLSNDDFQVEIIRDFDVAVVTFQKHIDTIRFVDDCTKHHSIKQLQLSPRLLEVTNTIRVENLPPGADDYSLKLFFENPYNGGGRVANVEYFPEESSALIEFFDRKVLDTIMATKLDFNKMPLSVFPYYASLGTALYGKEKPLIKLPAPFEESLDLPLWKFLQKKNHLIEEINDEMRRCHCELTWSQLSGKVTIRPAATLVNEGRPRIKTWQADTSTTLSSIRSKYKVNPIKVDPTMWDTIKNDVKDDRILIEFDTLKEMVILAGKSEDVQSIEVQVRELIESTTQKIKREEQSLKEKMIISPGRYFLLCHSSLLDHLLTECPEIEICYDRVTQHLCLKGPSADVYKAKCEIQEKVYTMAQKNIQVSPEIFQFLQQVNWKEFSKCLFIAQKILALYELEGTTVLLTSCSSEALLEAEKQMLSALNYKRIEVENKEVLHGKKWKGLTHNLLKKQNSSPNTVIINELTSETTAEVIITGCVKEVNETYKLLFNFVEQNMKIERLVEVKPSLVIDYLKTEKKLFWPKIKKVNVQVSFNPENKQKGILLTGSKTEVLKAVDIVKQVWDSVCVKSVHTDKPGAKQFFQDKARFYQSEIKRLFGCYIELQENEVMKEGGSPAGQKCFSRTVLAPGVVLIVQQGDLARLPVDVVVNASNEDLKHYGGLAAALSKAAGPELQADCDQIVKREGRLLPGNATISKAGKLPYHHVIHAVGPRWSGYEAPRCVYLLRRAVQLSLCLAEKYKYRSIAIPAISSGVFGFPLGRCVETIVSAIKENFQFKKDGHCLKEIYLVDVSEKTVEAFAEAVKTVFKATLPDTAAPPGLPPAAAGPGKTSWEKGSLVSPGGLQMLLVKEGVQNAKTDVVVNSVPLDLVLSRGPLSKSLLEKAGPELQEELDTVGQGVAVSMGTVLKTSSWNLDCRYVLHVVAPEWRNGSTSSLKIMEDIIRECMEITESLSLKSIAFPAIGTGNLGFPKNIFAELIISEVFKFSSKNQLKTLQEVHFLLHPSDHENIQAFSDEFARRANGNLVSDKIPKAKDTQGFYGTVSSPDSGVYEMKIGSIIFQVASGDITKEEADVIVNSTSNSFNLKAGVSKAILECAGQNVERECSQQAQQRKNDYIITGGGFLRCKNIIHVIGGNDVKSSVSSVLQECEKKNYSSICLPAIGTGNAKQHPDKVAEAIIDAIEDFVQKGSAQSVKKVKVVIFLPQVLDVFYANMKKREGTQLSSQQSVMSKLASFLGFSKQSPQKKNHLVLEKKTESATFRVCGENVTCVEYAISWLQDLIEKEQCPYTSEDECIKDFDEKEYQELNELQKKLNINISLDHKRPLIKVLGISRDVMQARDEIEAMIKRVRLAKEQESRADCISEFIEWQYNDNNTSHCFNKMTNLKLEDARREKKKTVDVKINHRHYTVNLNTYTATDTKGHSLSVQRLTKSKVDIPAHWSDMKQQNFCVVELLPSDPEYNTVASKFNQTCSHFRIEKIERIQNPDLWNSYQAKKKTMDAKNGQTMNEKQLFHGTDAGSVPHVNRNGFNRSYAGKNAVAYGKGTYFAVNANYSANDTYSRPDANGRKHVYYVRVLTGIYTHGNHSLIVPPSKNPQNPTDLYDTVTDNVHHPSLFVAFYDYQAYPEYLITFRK

`NC(=O)c1cccc(NC(=O)/C=C\C(=O)N2CCCC(Oc3ccccc3)C2)c1` (stereo unspecified) showed an IC50 of 1020 nM.
